Experimental data from US20210017607A1, “Methods of Predicting Responsiveness to Cancer Therapies” (The University of Chicago, priority 2019, published 2021).

Tested on: Myc-CAP tumors with Intermediate tumor cell intrinsic levels of STING
Test: Survival of mice bearing STING-overexpressing Myc-CAP tumors
Format: in vivo, mouse
Settings: DMXAA single intra-tumoral dose
Procedure: FIG. 52. STING agonist treatment is protective to mice bearing Myc-CAP tumors with Intermediate (not high) tumor cell intrinsic levels of STING. Syngeneic mice bearing Myc-CAP wild-type (WT) and STING overexpressed (STING OE; clone 34) or STING intermediate (STING OE; clone 35) tumors (200 mm^3) were treated with DMXAA ([…] intra-tumoral dose). Tumors were monitored until cut-off tumor volume of 2500 mm^3, and Kaplan Meier curves were plotted. n=3 mice per cohort.

Cc1ccc2c(=O)c3cccc(CC(=O)O)c3oc2c1C [DMXAA, 5,6-Dimethylxanthenone-4-acetic Acid]
survival (Kaplan Meier): protective
